Source: ChEMBL document CHEMBL4732203, “Synthesis of polyenylpyrrole derivatives with selective growth inhibitory activity against T-cell acute lymphoblastic leukemia cells” (Bioorg Med Chem Lett, 2021)

How the values were obtained:
Assay type in all cases: functional, cell-based
CCRF-CEM = assay: Cytotoxicity against human CCRF-CEM cells assessed as reduction in cell viability incubated for 72 hrs
Raji = assay: Cytotoxicity against human Raji cells assessed as reduction in cell viability incubated for 72 hrs
HeLa = assay: Cytotoxicity against human HeLa cells assessed as reduction in cell viability incubated for 3 days; conditions: 72 h
HSC-3 = assay: Cytotoxicity against human HSC-3 cells assessed as reduction in cell viability incubated for 3 days; conditions: HSC-3, 72 h

Row | Compound | IC50 (CCRF-CEM) [µM] | IC50 (Raji) [µM] | IC50 (HeLa) [µM] | IC50 (HSC-3) [µM]
1 | CCOC(=O)/C=C/c1ccc[nH]1 | > 10 | > 10 |  | 
2 | CCOC(=O)/C=C/C=C/C=C/C=C/c1ccco1 | > 10 | > 10 |  | 
3 | CCOC(=O)/C=C/C=C/C=C/C=C/c1[nH]ccc1Cl | 0.27 | > 10 | > 10 | > 10
4 | CCOC(=O)/C=C/C=C/c1nccs1 | > 10 | > 10 |  | 
5 | CCOC(=O)/C=C/C=C/C=C/c1nccs1 | 4.5 | 4.35 |  | 
6 | CCOC(=O)/C=C/C=C/C=C/C=C/c1ccc[nH]1 | 1.34 | 4.09 |  | 
7 | CCOC(=O)/C=C/C=C/c1ccco1 | > 10 | > 10 |  | 
8 | O=C(/C=C/C=C/C=C/c1ccc[nH]1)OCc1ccccc1 | 0.83 | > 10 |  | 
9 | O=C(/C=C/C=C/C=C/C=C/c1ccc[nH]1)c1ccccc1 | 0.72 | 5.99 |  | 
10 | COc1cc(\C(C)=C/C=C/C=C/C=C/c2[nH]ccc2Cl)oc(=O)c1C | 1.76 | > 10 |  | 
11 | O=C(/C=C/C=C/C=C/c1ccc[nH]1)c1ccccc1 | 3.07 | 9.89 |  | 
12 | CCOC(=O)/C=C/C=C/C=C/C=C/c1cccn1C | > 10 | > 10 |  | 
13 | CCOC(=O)/C=C/C=C/C=C/C=C/c1nccs1 | > 10 | > 10 |  | 
14 | CCOC(=O)/C=C/C=C/C=C/c1ccco1 | > 10 | > 10 |  | 
15 | O=C(/C=C/C=C/C=C/C=C/c1ccc[nH]1)OCc1ccccc1 | 0.19 | 1.4 |  | 
16 | CCOC(=O)/C=C/C=C/C=C/c1ccc[nH]1 | 3.67 | > 10 |  | 
17 | CCOC(=O)/C=C/C=C/C=C/c1[nH]ccc1Cl | 2.42 | > 10 |  | 
18 | CCOC(=O)/C=C/C=C/c1ccc[nH]1 | > 10 | > 10 |  | 
19 | CCOC(=O)/C=C/C=C/C=C/C=C/C=C/c1ccc[nH]1 | 0.45 | > 10 |  | 
20 | O=C(/C=C/C=C/C=C/C=C/c1[nH]ccc1Cl)OCc1ccccc1 | 0.28 | 6.7 |  | 
21 | CCOC(=O)/C=C/C=C/c1[nH]ccc1Cl | > 10 | > 10 |  | 
22 | COc1cc(/C=C/C=C/C=C/C=C/c2[nH]ccc2Cl)oc(=O)c1 [AUXARCONJUGATIN B] | 0.51 | 5.74 |  | 
